Here are results for six molecules from patent US3998808A, “Compositions of matter D-hetero-1,1-(α-thiocyanoacetyl) compounds” (Velsicol Chemical Corporation, priority 1971, dated 1976).

Molecules are shown by their SMILES. Read-outs that look alike come from different tables or passages of the source.

What all share (format): in vivo
Test [1] concerns housefly (Musca domestica). In words: housefly topical test. Conditions: read-out: % Control Housefly Topical Test. Here is the method: In another experiment designated as the housefly topical test, each of fifty flies was contacted with a test compound by applying […] of test formulation containing 3500 ppm of active chemical to the dorsum of its thorax. The flies were then placed in a wire mesh cage where they were supplied with sugar syrup. At the end of a 24 hour period the mortality of the flies was observed and rated in comparison to a control.

Test [2] concerns housefly (Musca domestica). The test can be described thus: housefly knockdown test. Conditions: sprayed with formulation containing 3500 ppm; knockdown after 30 minutes, in comparison to a control. The procedure: In one experiment, designated as the housefly knockdown test, 50, 3-day-old, unsexed, adult houseflies were anesthetized with carbon dioxide gas and placed into a fine mesh wire cage. The flies were allowed to recover completely from the effects of the carbon dioxide gas and were then sprayed with a test formulation containing 3500 ppm of the test compound. After 30 minutes the knockdown value of the test compound was determined. Knockdown is considered as an individual fly that is unable to move its body length, and the knowndown value is given as a percent of down flies based on the number of down flies in comparison to a control.

Test [3] has as its system leaf rust of wheat (Puccinia rubigo-vera). In words: protection of wheat against leaf rust of wheat. Conditions: wheat plants sprayed with 1000 ppm solutions before inoculation; about 8 days in greenhouse; in comparison with untreated controls. Here is the method: In one experiment carried out for the protection of wheat against leaf rust of wheat (Puccinia rubigo-vera), 6 day old wheat plants were sprayed with 1000 ppm solutions of the test compounds. After the spray film had dried, the plants were inoculated by shaking a 9 to 13 day old leaf rust of wheat culture over the foliage. Immediately after inoculation the plants were placed in a 20° C. moist chamber overnight. The plants were then transferred to a greenhouse and kept there for a period of about 8 days. After this time the extent of the disease was observed and rated in comparison with untreated controls.

Test [4] deals with pea aphid (Acyrthosiphon pisum). The test can be described thus: whole plant or invertebrate. Conditions: sprayed at 3500 ppm, aqueous emulsion of an acetone solution, 48 hours, in comparison to a control, read-out: mortality of the pea aphids. An excerpt: The insecticidal activity of the compounds of this invention was further illustrated in an experiment for the control of the pea aphid (Acyrthosiphon pisum). In this experiment a ten day old Laxton pea plant contained in a small plastic pot was infested with ten adult pea aphids. The plant and pea aphids were then sprayed with the test compound formulated as an aqueous emulsion of an acetone solution, at a concentration of 3500 ppm. The infested plants were then placed in a holding chamber maintained at a constant temperature for a period of 48 hours. After this time the mortality of the aphids was determined and rated on a percent basis in comparison to a control. In this experiment the compounds 1-(α-thiocyanoacetyl) pyrrolidine and 1-(α-thiocyanoacetyl)-2,6-dimethylpiperidine gave 100% mortality of the pea aphids.

Where [5] appears, read: 1 ml of formulation containing 3500 ppm applied to dorsum of thorax, mortality after 24 hours, in comparison to a control.

For `CC1CCC(C)N1C(=O)CSC#N` (stereo not drawn) [1-(α-thiocyanoacetyl)-2,5-dimethylpyrrolidine], in test [1] (setting [5]), the mortality at 3500 µg/mL was 100%. In test [2], the “% Control Housefly Knockdown Test” value was found to be 100%.
With `N#CSCC(=O)N1CCCCCC1` [1-(α-thiocyanoacetyl) hexamethylenimine], in test [1] (setting [5]), the mortality at 3500 µg/mL was determined as 31%. For the same molecule, the “% Control Housefly Knockdown Test” value in test [2] turned out to be 94%.
Take `CC1CCCC(C)N1C(=O)CSC#N` (stereo not drawn) [1-(α-thiocyanoacetyl)-2,6-dimethylpiperidine]: in test [1] (24 h), the mortality at 3500 µg/mL stood at 94%. Moreover, the “% Control (leaf rust of wheat)” value in test [3] is reported as 96%. Also, in test [2], the “% Control Housefly Knockdown Test” value amounted to 92%. Also, the mortality at 3500 ppm in test [4] is 100%.
Take `CC1CCCN(C(=O)CSC#N)C1` (stereo not drawn) [1-(α-thiocyanoacetyl)-3-pipecoline]: the mortality at 3500 µg/mL in test [1] (setting [5]) is 100%. Further, the “% Control (leaf rust of wheat)” value in test [3] was 90%. Besides, the “% Control Housefly Knockdown Test” value in test [2] is 100%.
Turning to `N#CSCC(=O)N1CCCC1` [1-(γ-Thiocyanoacetyl) pyrrolidine, 1-(α-thiocyanoacetyl) pyrrolidine], the “% Control (leaf rust of wheat)” value in test [3] turned out to be 98%. In addition, the mortality at 3500 ppm in test [4] was determined as 100%.
For `CC1CCN(C(=O)CSC#N)CC1` [1-(α-thiocyanoacetyl)-4-pipecoline], the mortality at 3500 µg/mL in test [1] (setting [5]) was determined as 100%. The “% Control (leaf rust of wheat)” value in test [3] is listed as 99%. Further, the “% Control Housefly Knockdown Test” value in test [2] is listed as 100%.
